{"source": "patent US11766437B2", "about": "“Combination therapies for inhibition of TTK protein kinase” (UNIVERSITY HEALTH NETWORK, priority 2018, dated 2023)", "key": {"[1]": {"assay": "Animal body weight monitoring / tolerability in CT26 tumor-bearing BALB/cJ mice", "type": "in vivo, mouse", "description": "(§1) BALB/cJ mice were inoculated subcutaneously with 1×10^6 CT26 cells. The mice were then randomized. Animal weights were monitored daily, and tumor volume was measured three times per week.\n(§2) Treatments were initiated when tumor volumes reached an average size of ˜60 mm^3. To treat an established tumor, the animals were first assigned into groups, i.e., the control group receiving rat IgG2a […], the group receiving the compound CFI-402257 monotherapy, the group receiving the rat IgG2a anti-PD-1 antibody monotherapy and the group receiving the combination therapy. The compound CFI-402257 and the vehicle [10% (v/v) NMP/40% (v/v) PEG-300/50% (v/v) water for the hydrochloride form; or 80-90% (v/v) PEG-300 or PEG-400 20-10% (v/v) water for the bisphosphate hemihydrate form] were administered by oral gavage (PO), at 6 mg/kg daily (QD) for 21 days. The anti-PD-1 antibody or the isotype control were administered by intraperitoneal (IP) injection. 150 μg anti-PD-1 antibody was administered in four doses, i.e., on Days 0, 3, 6 and 10. These treatment studies were carried out in duplicates."}, "[2]": {"system": "CT26 mouse colon carcinoma", "assay": "Treatment of established subcutaneous CT26 tumors in BALB/cJ mice (syngeneic CT26 mouse colon carcinoma model)", "type": "in vivo", "conditions": "CFI-402257 6 mg/kg PO QD 21 days, anti-PD-1 antibody 150 μg IP Days 0, 3, 6, 10", "description": "as §1\n[…] was defined as 100×[1−TVf, treated−TVi, treated)/(TVf, control−TVi, control)], where TVf is the average tumor volume at the end of study and TVi is the average tumor volume at the end initiation of treatment. In cases in which tumor regression occurred, percentage of tumor regression was defined as 100×[1−(TVf, treated/TVi, treated)]. At the completion of each study, the mice were killed by an anesthetic overdose, and tumor tissue was removed for further analysis.\nas §2, with “The anti-PD-1 antibody or the isotype control were administered by intraperitoneal (IP) injection. 150 μg anti-PD-1 antibody was administered in four doses, i.e., on Days 0, 3, 6 and 10. These treatment studies were carried out in duplicates.” left out"}}, "data": [{"smiles": "Cc1cc(-c2cnn3c(NC[C@H]4C[C@@](C)(O)C4)cc(Oc4cccnc4)nc23)ccc1C(=O)NC1CC1", "note": "[CFI-402257]", "values": [{"measurement": "tolerability of the administered dosage", "setting": "[1]; CFI-402257 6 mg/kg PO QD 21 days, anti-PD-1 antibody 150 μg IP Days 0, 3, 6, 10", "value": "well-tolerated"}, {"measurement": "animals recording significant body weight loss", "setting": "[1]; first experiment", "value": "none"}, {"measurement": "body weight loss", "setting": "[1]; second experiment", "value": "< 7.5", "unit": "%"}, {"measurement": "complete tumor regression", "setting": "[2]; first and duplicate experiment together (FIGS. 1 and 2)", "value": "no instances in which complete regression was observed"}, {"measurement": "effect on tumor growth (tumor volume)", "setting": "[2]; single agent arms, first and duplicate experiment (FIGS. 1B, 1C, 2B, 2C)", "value": "tumor growth delay"}]}]}
